Results taken from patent publication US20250195576A1, “METHOD TO GENERATE MORE EFFICIENT CAR-T CELLS” (INSTITUT NATIONAL DE LA SANTÉ ET DE LA RECHERCHE MÉDICALE, priority 2022, published 2025).

How the values were obtained:
[1] = tested on: ERK and AKT signaling proteins; assay: Western blot of ERK and AKT phosphorylation upon TCR stimulation; format: cell-based, human; settings: after TCR stimulation, including at steady state; data not shown
Method: Western blot analysis. Protein expression levels were analyzed by Western blot as described (Froehlich et al. 2016). Blotting with primary was followed by goat-anti-mouse- or goat-anti-rabbit-HRP (Jackson ImmunoReseach) incubation and ECL revelation (GE Healthcare, #RPN2106).

[2] = tested on: Human primary T lymphocytes; assay: Granzyme B expression by intracellular flow cytometry; format: cell-based
Method: (§1) FIGS. 1A to 1C: FOXO1 inhibition allows increase number of cytotoxic T cells and increased their activity. Human primary T lymphocytes from healthy donor (PBT) were treated with AS1842856 (500 nM) or equivalent of DMSO for 7 days. (1A) Cells were surface labeled with anti-CD4 and anti-CD8, next fixed and permeabilized before labeled with antibodies against Granzyme B. The graphs present the values correspond to the mean±SEM obtained with three independent donors. Significance was assessed using a paired Student t-test. (1B) At the end of the culture, cells were stimulated by PMA and ionomycin during three hours. After CD4 and CD8 labelling, intracellular detection of TNF-α was performed using an antibody against TNF-α. The values correspond to the mean±SEM obtained with three independent donors. Significance was assessed using a paired Student t-test. (1C) CD8 T cells from vehicle or treated cells were purified and co-cultured with P815 target cells pre-coated with anti-CD3 mAb, percentage of lysis was evaluated by 51Cr release assay at different effector: target ratios. The values correspond to the mean±SEM obtained with three independent donors. Significance was assessed using 2-way Anova test.
Cells. […]
(§2) Flow cytometry. […] After wash with PBS, cells were immediately analyzed by flow cytometry. […] After two washes, cells were run on BD LSRII (BD Biosciences) and analyzed using FlowJo software.

FOXO1 = assay: CD62L expression by cytometry; format: cell-based, human
Method: Cell transfection. Cells were transfected by nucleofection using the Human T Cell Nucleofector solution (Lonza, VPA-1002) and program U-014 of the Nucleofector AMAXA. For CRISPR, 2×10^6 cells were nucleofected with 75 pmol of Cas9 protein (Thermo Fisher, #A36499) and one RNA guide targeting the FOXO1 gene (Thermo Fisher, #sgRNACRISPR889854_SGM Foxo1) at a 1:1 molar ratio. To induce FOXO1 expression, 5×10^6 cells were transfected with 5 μg DNA of the pEGFP-FOXO1-T24A-S256A-S319A-H215R plasmid (Nagashima et al., 2010) or pEGFP-N1 (clontech) as control. Jurkat T cells (5×106 in RPMI 1640 medium) were electroporated at 260 V, 1000 μF in 4-mm polycarbonate cuvettes (Eurogentec) with 5 μg of the GFP, the triple mutant T24A/S256A/S319A FOX01-GFP (FOXO1-TM-GFP) or the FOXO1-TM-GFP DNA binding mutant plasmids (FOXO1-TM-H215R-GFP) (Fabre et al. 2008). Four hours later, AS1842856 was added or not in the culture. At 48 hours, CD62L expression was analyzed by cytometry.
Flow cytometry. Cells were washed and stained with antibodies diluted in PBS (Thermo Fisher Scientific; cat #10010001) supplemented with 0.1% BSA (Sigma-Aldrich, cat #A7030-500G) for 20 minutes at 4° C. After wash with PBS, cells were immediately analyzed by flow cytometry. […] After two washes, cells were run on BD LSRII (BD Biosciences) and analyzed using FlowJo software.

[3] = tested on: Human primary T lymphocytes; assay: Viability assay (propidium iodide); format: cell-based; settings: in vitro culture
Method: PBT were treated with AS1842856 (500 nM) or vehicle only. Every seven days, some cells from the two conditions were collected and labeled with Propidium Iodide (PI). […] Significance was assessed using 2-way Anova test.
Viability assay. Cells were collected and propidium iodide was added (10 μg/ml, Invitrogen). Samples were run on FACSCalibur (Becton Dickinson) and analyzed using FlowJo software.

[4] = tested on: Human primary T lymphocytes; assay: T cell subsets and immune checkpoint expression by flow cytometry; format: cell-based
Method: PBT were treated with 500 nM of AS1842856 or vehicle only for 7 days. (3A) Memory subsets composition in vehicle or AS1842856 CD4 (upper panel) and CD8 (lower panel) cells. TN are CD45RA+, CD27+, CD95−; TSCM are CD45RA+, CD27+, CD95+; TCM are CD45RA−, CD27+; TEM are CD45RA−, CD27− and Teff are CD45RA+, CD27−. The graphs show the mean percentage±SEM of the different subsets in vehicle or AS1842856 conditions on CD4 (upper panel) and CD8 (lower panel) T cells obtained with five independent donors. Significance was assessed using 1-way Anova test. (3B) CTLA-4, PD-1 and TIGIT expressions on CD4 (upper panel) and CD8 (lower panel) T cells were measured by FACS. The graphs show the MFI±SEM obtained with five independent donors. Significance was assessed using a paired Student t-test.
(§3) Flow cytometry. Cells were washed and stained with antibodies diluted in PBS (Thermo Fisher Scientific; cat #10010001) supplemented with 0.1% BSA (Sigma-Aldrich, cat #A7030-500G) for 20 minutes at 4° C. After wash with PBS, cells were immediately analyzed by flow cytometry. For intracellular staining, cells were fixed with 4% paraformaldehyde (PFA) for 10 minutes at room temperature, permeabilized using a buffer containing 0.1% Saponin (Sigma-Aldrich, 84510) in PBS and stained after two PBS washes using antibodies diluted in the same saponin buffer for 30 minutes at 4° C. After two washes, cells were run on BD LSRII (BD Biosciences) and analyzed using FlowJo software.

[5] = tested on: Human primary T lymphocytes; assay: TNF-α intracellular labeling and cytokine secretion (MSD assay); format: cell-based
Method: as §1, §2

[6] = tested on: Human primary T lymphocytes; assay: In vitro proliferation assay (CFSE dilution, anti-CD3/CD28 beads); format: cell-based; settings: data not shown
Method: Proliferation assay. In vitro proliferation assay of primary T cells was assessed by dilution of Cell Trace Fluorescent Green kit (CFSE, Invitrogen, cat #C34554). After two washes in RPMI 1640 GlutaMAX medium, cells were resuspended at 4×10^6 cells per ml in a 5 μM Cell Trace Fluorescent Green solution. Cells were incubated in dark at 37° C. for 20 minutes. After the loading, cells were washed with a volume of hot RPMI medium supplemented with 10% Human AB serum, penicillin and streptomycin (50U/ml and 50 μg/m respectively) corresponding to 5 times the loading volume. Cell suspension was collected and dispensed into 96-wells round-bottom plates (2×10^5 cells per well) and stimulated using anti-CD3/CD28 coated-beads Dynabeads (Invitrogen, #11131D) for 3 days. Samples were run on BD LSR Fortessa and analyzed using FlowJo software. For in vivo proliferation assay, T^AS cells were labeled by dilution of CFSE as for in vitro proliferation assay described above. Then 10^7 CFSE^+ cells per immunodificient NSG mouse (NOD.Cg-Prkde^scid I12rg^tm1WjI/SzJ mouse, cat #JAX: 005557, Charles River) resuspended in 100 μL PBS supplemented by 10% FBS were intravenously injected in the retro-orbital vein. 5, 9 or 12 days after injection, spleens were collected to be minced and meshed on the top of a 40 μm cell strainer (Thermo Fisher, #22363547). […] Data were analyzed using FlowJo software.

[7] = tested on: Human primary T lymphocytes; assay: Calcium measurements upon TCR stimulation; format: cell-based; settings: compared to untreated cells; data not shown
Method: Calcium Measurements. T cells were incubated for 20 minutes at 37° C. with 1.5 μM Fura-2/AM (Molecular Probes, F1225). Experiments were performed at 37° C. in mammalian saline buffer (140 mM NaCl, 5 mM KCl, 1 mM CaCl2, 1 mM MgCl2, 20 mM HEPES, 11 mM glucose). Calcium measurements by spectrofluorimetry were performed as previously described (Conche et al. 2009) with a Cary Eclipse spectrofluorimeter (Varian) (excitation: 340 and 380 nm; emission: 510 nm).

[8] = tested on: Human primary T lymphocytes; assay: Chemokine receptor membrane expression by flow cytometry; format: cell-based; settings: data not shown
Method: as §3

CCn1cc(C(=O)O)c(=O)c2c(N)c(F)c(NC3CCCCC3)cc21 [AS1842856]
Phosphorylation of AKT [1]: hypophosphorylation | Phosphorylation of ERK [1]: hyperphosphorylation | Granzyme B expression in CD8 subset ([2]; AS1842856 500 nM, 7 days, CD8 T cells): upregulated | Increase of granzyme B expression ([2]; same conditions as Foxo1 invalidation by CRISPR, data not shown): more than two-fold increase | CD62L expression in Jurkat T cells with FOXO1 H215R mutant (FOXO1; Jurkat T cell line transfected with FOXO1 H215R mutant, 48 hours, data not shown): could not be further decreased | CD62L expression (FOXO1; primary T cells): decrease | T cell viability [3]: promotes | Toxicity on T cells [3]: no toxicity | CTLA-4 expression [4]: no significant modification | Markers of Th1 (T-bet+), Th2 (GATA3+) and Treg (FOXP3+) subsets ([4]; CD4 subsets, data not shown): no significant changes | Cells expressing PD1 ([4]; after AS1842856 treatment): no more than 10% | Naive subset (CD45RA+/CD27+/CD95−) ([4]; both CD4 and CD8 T cells): sharp decrease | TSCM subset (CD45RA+/CD27+/CD95+) ([4]; both CD4 and CD8 T cells): strong increase | PD1 expression ([4]; both CD8+ and CD4+ cells): small but significant increase | CD8 expression ([4]; data not shown): decreased expression | Tfh (CXCR5+, BcL-6+) subset ([4]; data not shown): slight increase | TIGIT expression ([4]; reaching significance only in CD8+ T cells): consistent increase | TNF-α expression (percentage of cells, intracellular labeling) ([5]; 500 nM 7 days, then PMA and ionomycin three hours): significantly increased | TNF-α secreted in supernatant (MSD assay) ([5]; data not shown): confirmed | CFSE dilution peaks ([6]; after 60h of stimulation): greater number of CFSE dilution peaks | Time to proliferation after stimulation ([6]; anti-CD3/CD28 beads, CFSE): 40 h | Calcium influx induced upon TCR stimulation [7]: less rapid and of a lower magnitude | CCR4 membrane expression [8]: increase | CCR6 membrane expression [8]: increase | CX3CR1 membrane expression [8]: increase | CXCR4 membrane expression [8]: significant decrease
